According to PubChem BioAssay AID328 (DTP/NCI, 2004):
Values joined by “and” are separate entries in the source; they are usually repeats but may differ in a detail not shown here. Equal values may be shown once. Inconclusive results and toxic doses are left out.

Test system: BDF1 mice, P388 leukemia ip, median survival T/C
Test: NCI In Vivo Anticancer Drug Screen. Data for tumor model P388 Leukemia (intraperitoneal) in B6D2F1 (BDF1) mice
Conditions: endpoint: median survival time, higher = longer survival
How it was run: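 Steps: implant the tumour, treat one group with compound and another with vehicle, record survival, then divide treated by control.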

[1] = dose: 50.0 mg/kg/injection, schedule: Q01DX009 (ip), vehicle: saline with Tween-80
[2] = dose: 100.0 mg/kg/injection, schedule: Q01DX009 (ip), vehicle: saline with Tween-80
[3] = dose: 200.0 mg/kg/injection, schedule: Q01DX009 (ip), vehicle: saline with Tween-80

CS(=O)(=O)Nc1ccccc1[N+](=O)[O-]
T/C [1]: 109 % of control | T/C [2]: 104 % of control and 115 % of control | T/C [3]: 100 % of control

COB1OB(OC)OB(OC)O1
T/C [2]: 104 % of control | T/C (dose: 100.0 mg/kg/injection, schedule: Q04DX003 (ip), vehicle: saline with Tween-80): 100 % of control | T/C [3]: 100 % of control | T/C (dose: 200.0 mg/kg/injection, schedule: Q04DX003 (ip), vehicle: saline with Tween-80): 100 % of control | T/C (dose: 400.0 mg/kg/injection, schedule: Q01DX009 (ip), vehicle: saline with Tween-80): 109 % of control | T/C (dose: 400.0 mg/kg/injection, schedule: Q04DX003 (ip), vehicle: saline with Tween-80): 100 % of control

Clc1ccc2c(c1)CN1Cc3cc(Cl)ccc3C2C1
T/C (dose: 50.0 mg/kg/injection, schedule: Q01DX001 (ip), vehicle: saline with Tween-80): 108 % of control | T/C (dose: 100.0 mg/kg/injection, schedule: Q01DX001 (ip), vehicle: saline with Tween-80): 108 % of control | T/C (dose: 200.0 mg/kg/injection, schedule: Q01DX001 (ip), vehicle: saline with Tween-80): 97 % of control

Nc1c(Br)cc(Br)cc1Br
T/C (dose: 6.0 mg/kg/injection, schedule: Q01DX009 (ip), vehicle: Klucel (hydroxypropylcellulose) (HPC)): 110 % of control | T/C (dose: 12.0 mg/kg/injection, schedule: Q01DX009 (ip), vehicle: Klucel (hydroxypropylcellulose) (HPC)): 105 % of control | T/C (dose: 25.0 mg/kg/injection, schedule: Q01DX009 (ip), vehicle: Klucel (hydroxypropylcellulose) (HPC)): 105 % of control | T/C (dose: 100.0 mg/kg/injection, schedule: Q01DX009 (ip), vehicle: Klucel (hydroxypropylcellulose) (HPC)): 105 % of control | T/C (dose: 100.0 mg/kg/injection, schedule: Q04DX003 (ip), vehicle: Klucel (hydroxypropylcellulose) (HPC)): 100 % of control | T/C (dose: 200.0 mg/kg/injection, schedule: Q01DX009 (ip), vehicle: Klucel (hydroxypropylcellulose) (HPC)): 100 % of control | T/C (dose: 200.0 mg/kg/injection, schedule: Q04DX003 (ip), vehicle: Klucel (hydroxypropylcellulose) (HPC)): 95 % of control | T/C (dose: 400.0 mg/kg/injection, schedule: Q01DX009 (ip), vehicle: Klucel (hydroxypropylcellulose) (HPC)): 111 % of control | T/C (dose: 400.0 mg/kg/injection, schedule: Q04DX003 (ip), vehicle: Klucel (hydroxypropylcellulose) (HPC)): 100 % of control

Cc1c(Cl)cccc1NC(=O)/C=C/C(=O)O
T/C (dose: 44.0 mg/kg/injection, schedule: Q01DX009 (ip), vehicle: saline with Tween-80): 95 % of control | T/C [1]: 122 % of control | T/C (dose: 66.0 mg/kg/injection, schedule: Q01DX009 (ip), vehicle: saline with Tween-80): 100 % of control | T/C [2]: 100 % of control | T/C (dose: 150.0 mg/kg/injection, schedule: Q01DX009 (ip), vehicle: saline with Tween-80): 104 % of control | T/C [3]: 109 % of control

CO[C@H]1Nc2c(ccc(C)c2O)C(=O)N2C=C(/C=C/C(N)=O)C[C@@H]12
T/C (dose: 0.02 mg/kg/injection, schedule: Q01DX010 (ip), vehicle: carboxymethylcellulose (CMC)): 230 % of control | T/C (dose: 0.05 mg/kg/injection, schedule: Q01DX010 (ip), vehicle: carboxymethylcellulose (CMC)): 230 % of control | T/C (dose: 0.08 mg/kg/injection, schedule: Q01DX009 (ip), vehicle: Klucel (hydroxypropylcellulose) (HPC)): 242 % of control | T/C (dose: 0.08 mg/kg/injection, schedule: Q01DX009 (ip), vehicle: saline): 150 % of control | T/C (dose: 0.1 mg/kg/injection, schedule: Q01DX010 (ip), vehicle: carboxymethylcellulose (CMC)): 210 % of control | T/C (dose: 0.12 mg/kg/injection, schedule: Q01DX009 (ip), vehicle: saline with Tween-80): 168 % of control | T/C (dose: 0.18 mg/kg/injection, schedule: Q01DX009 (ip), vehicle: Klucel (hydroxypropylcellulose) (HPC)): 238 % of control | T/C (dose: 0.2 mg/kg/injection, schedule: Q01DX010 (ip), vehicle: carboxymethylcellulose (CMC)): 185 % of control | T/C (dose: 0.25 mg/kg/injection, schedule: Q01DX010 (ip), vehicle: saline): 90 % of control | T/C (dose: 151.0 micrograms/kg/injection, schedule: Q04DX003 (ip), vehicle: saline + alcohol): 186 % of control | T/C (dose: 216.0 micrograms/kg/injection, schedule: Q04DX003 (ip), vehicle: saline + alcohol): 177 % of control and 189 % of control | T/C (dose: 252.0 micrograms/kg/injection, schedule: Q04DX003 (ip), vehicle: saline + alcohol): 208 % of control | T/C (dose: 360.0 micrograms/kg/injection, schedule: Q04DX003 (ip), vehicle: saline + alcohol): 183 % of control and 196 % of control | T/C (dose: 420.0 micrograms/kg/injection, schedule: Q04DX003 (ip), vehicle: saline + alcohol): 215 % of control | T/C (dose: 600.0 micrograms/kg/injection, schedule: Q04DX003 (ip), vehicle: saline + alcohol): 94 % of control and 112 % of control
